From the NIST ThermoML archive (doi:10.1016/j.jct.2017.06.001)

Test: xn = mol fraction of the nth substance listed
Details: 100 kPa, Liquid; for mass density: 293.15 K, Vibrating tube method; for speed of sound: 298.15 K, Frequency=5 MHz, Pulse-echo method

OCCCCCO [1,5-pentanediol] + O
Details | mass density [kg/m3] | speed of sound [m/s]
x1 = 0.0002 | – | 1497.3
x1 = 0.0006 | – | 1498.9
x1 = 0.0012 | – | 1501.2
x1 = 0.0018 | – | 1503.4
x1 = 0.0026 | – | 1506.3
x1 = 0.004 | – | 1511.1
x1 = 0.0054 | – | 1515.9
x1 = 0.0067 | – | 1520.1
x1 = 0.0083 | – | 1525.4
x1 = 0.0097 | – | 1529.9
x1 = 0.0113 | – | 1534.7
x1 = 0.0123 | – | 1537.8
x1 = 0.0138 | – | 1542.2
x1 = 0.0153 | – | 1546.5
x1 = 0.0168 | – | 1550.8
x1 = 0.0184 | – | 1555.2
x1 = 0.0195 | – | 1558
x1 = 0.0205 | – | 1560.8
x1 = 0.0221 | – | 1564.7
x1 = 0.0243 | – | 1570.1
x1 = 0.0264 | – | 1575.3
x1 = 0.0287 | – | 1580.3
x1 = 0.0308 | – | 1584.9
x1 = 0.0326 | – | 1588.7
x1 = 0.0347 | – | 1593
x1 = 0.0362 | – | 1596.1
x1 = 0.0378 | – | 1599.1
x1 = 0.0396 | – | 1602.6
x1 = 0.0414 | – | 1605.7
x1 = 0.0432 | – | 1608.9
x1 = 0.045 | – | 1612
x1 = 0.0465 | – | 1614.4
x1 = 0.0484 | – | 1617.3
x1 = 0.0503 | – | 1620.2
x1 = 0.0523 | – | 1623.2
x1 = 0.0539 | – | 1625.4
x1 = 0.0554 | – | 1627.5
x1 = 0.057 | – | 1629.7
x1 = 0.0588 | – | 1631.9
x1 = 0.0607 | – | 1634.3
x1 = 0.0624 | – | 1636.4
x1 = 0.0647 | – | 1639
x1 = 0.0672 | – | 1641.8
x1 = 0.0698 | – | 1644.5
x1 = 0.0724 | – | 1647.1
x1 = 0.0743 | – | 1648.9
x1 = 0.0774 | – | 1651.7
x1 = 0.0814 | – | 1655.1
x1 = 0.0847 | – | 1657.7
x1 = 0.0877 | – | 1659.9
x1 = 0.0907 | – | 1661.9
x1 = 0.0941 | – | 1664.1
x1 = 0.0968 | – | 1665.7
x1 = 0.0975 | – | 1666.1
x1 = 0.1007 | – | 1667.9
x1 = 0.1013 | – | 1668.2
x1 = 0.1045 | – | 1669.8
x1 = 0.1057 | – | 1670.4
x1 = 0.108 | – | 1671.4
x1 = 0.1105 | – | 1672.6
x1 = 0.1112 | – | 1672.8
x1 = 0.1142 | – | 1674
x1 = 0.1158 | – | 1674.7
x1 = 0.1173 | – | 1675.2
x1 = 0.1201 | – | 1676.2
x1 = 0.1217 | – | 1676.7
x1 = 0.1233 | – | 1677.2
x1 = 0.1262 | – | 1678.1
x1 = 0.5003 | 999.3 | –
x1 = 0.5362 | 998.5 | –
x1 = 0.6177 | 996.9 | –
x1 = 0.6478 | 996.3 | –
x1 = 0.7025 | 995.2 | –
x1 = 0.7504 | 994.4 | –
x1 = 0.7927 | 993.6 | –
x1 = 0.8605 | 992.3 | –
x1 = 0.9004 | 991.5 | –
x1 = 0.9496 | 990.4 | –
x1 = 1 | 989.3 | –
